From patent publication US20250230165A1, “HETEROCYCLIC COMPOUNDS FOR USE IN THE TREATMENT OF CANCER” (ARTIOS PHARMA LIMITED, priority 2021, published 2025)
Structures can show the parent of a compound that is named as a salt.

Molecular target: T1, Human Polθ polymerase domain (aa1820-2590) (Homo sapiens, UniProt O75417)
T1 construct: Human Polθ polymerase domain (aa1820-2590) was expressed in E. coli; made in house; host or cells: E. coli
T1 sequence (O75417 1820-2590): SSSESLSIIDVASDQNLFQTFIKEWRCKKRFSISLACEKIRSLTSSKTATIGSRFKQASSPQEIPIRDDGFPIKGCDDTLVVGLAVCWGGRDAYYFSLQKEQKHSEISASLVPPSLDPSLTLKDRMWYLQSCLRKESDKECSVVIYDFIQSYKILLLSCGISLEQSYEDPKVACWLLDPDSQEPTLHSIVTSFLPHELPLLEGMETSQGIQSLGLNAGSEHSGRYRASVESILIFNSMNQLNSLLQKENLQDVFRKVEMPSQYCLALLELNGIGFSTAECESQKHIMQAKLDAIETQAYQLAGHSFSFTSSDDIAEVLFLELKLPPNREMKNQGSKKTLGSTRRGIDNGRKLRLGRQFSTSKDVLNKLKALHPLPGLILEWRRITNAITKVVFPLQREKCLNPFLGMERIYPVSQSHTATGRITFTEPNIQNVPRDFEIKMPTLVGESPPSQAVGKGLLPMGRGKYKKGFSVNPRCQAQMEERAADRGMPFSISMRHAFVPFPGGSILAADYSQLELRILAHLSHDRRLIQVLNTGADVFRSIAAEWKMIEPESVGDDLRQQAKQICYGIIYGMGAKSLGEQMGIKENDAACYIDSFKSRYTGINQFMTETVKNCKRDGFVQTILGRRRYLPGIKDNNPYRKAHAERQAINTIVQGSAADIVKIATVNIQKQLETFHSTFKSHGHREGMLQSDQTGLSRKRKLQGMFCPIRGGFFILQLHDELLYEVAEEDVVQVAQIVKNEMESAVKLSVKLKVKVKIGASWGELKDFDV
Test: Polθ Polymerase Domain Kinact/KI Assay (PicoGreen)
Type: biochemical
Conditions: 0.8 nM Polθ, 100 nM DNA substrate, kobs vs [I] fit for 2-step covalent inhibitor
In short: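 Kinact and KI derive from fitting kobs versus [I], where kobs were fitted from EDTA-stopped PicoGreen time courses (up to 60 min) in Tris pH 7.5 buffer with 1% DMSO, 0.8 nM enzyme, 100 nM DNA and […].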

Kinact/Kl | SMILES
73000 M⁻¹ s⁻¹ | C=CC(=O)N1CC(N2CCN(CCN3C[C@H]4CC(=O)N(c5cc(C(F)(F)F)cc(C)n5)[C@@H]4C(=O)N(C)c4cc(F)ccc43)CC2)C1 [Example 15, (3aR,11aS)-5-(2-(4-(1-acryloylazetidin-3-yl)piperazin-1-yl)ethyl)-8-fluoro-10-methyl-1-(6-methyl-4-(trifluoromethyl)pyridin-2-yl)-1,3a,4,5,10,11a-hexahydro-2H-benzo[b]pyrrolo[2,3-f][1,4]diazocine-2,11(3H)-dione]
130000 M⁻¹ s⁻¹ | C=CC(=O)N1CC(N2CCN(CCN3C[C@H]4CC(=O)N(c5cc(C(F)(F)F)cc(C)n5)[C@@H]4C(=O)N(C)c4cc(F)cc(F)c43)CC2)C1 [Example 16, (3aR,11aS)-5-(2-(4-(1-acryloylazetidin-3-yl)piperazin-1-yl)ethyl)-6,8-difluoro-10-methyl-1-(6-methyl-4-(trifluoromethyl)pyridin-2-yl)-1,3a,4,5,10,11a-hexahydro-2H-benzo[b]pyrrolo[2,3-f][1,4]diazocine-2,11(3H)-dione]
1.19e+06 M⁻¹ s⁻¹ | C=CC(=O)N1CC(N2CCN(CCN3C[C@H]4CC(=O)N(c5cc(C(F)(F)F)cc(C)n5)[C@@H]4C(=O)N(C)c4cc(F)cc(Cl)c43)CC2)C1 [Example 17, (3aR,11aS)-5-(2-(4-(1-acryloylazetidin-3-yl)piperazin-1-yl)ethyl)-6-chloro-8-fluoro-10-methyl-1-(6-methyl-4-(trifluoromethyl)pyridin-2-yl)-1,3a,4,5,10,11a-hexahydro-2H-benzo[b]pyrrolo[2,3-f][1,4]diazocine-2,11(3H)-dione]
1.18e+06 M⁻¹ s⁻¹ | C=CC(=O)N1CC(N2CCN(CCN3C[C@H]4CC(=O)N(c5cc(C(F)(F)F)cc(C)n5)[C@@H]4C(=O)N(C)c4cc(F)cc(C)c43)CC2)C1 [Example 18, (3aR,11aS)-5-(2-(4-(1-acryloylazetidin-3-yl)piperazin-1-yl)ethyl)-8-fluoro-6,10-dimethyl-1-(6-methyl-4-(trifluoromethyl)pyridin-2-yl)-1,3a,4,5,10,11a-hexahydro-2H-benzo[b]pyrrolo[2,3-f][1,4]diazocine-2,11(3H)-dione]
350000 M⁻¹ s⁻¹ | C=CC(=O)N1CC(N2CCN(CCN3C[C@H]4CC(=O)N(c5cc(C(F)(F)F)cc(C)n5)[C@@H]4C(=O)N(C)c4cc(F)cc(C5CC5)c43)CC2)C1 [Example 19, (3aR,11aS)-5-(2-(4-(1-acryloylazetidin-3-yl)piperazin-1-yl)ethyl)-6-cyclopropyl-8-fluoro-10-methyl-1-(6-methyl-4-(trifluoromethyl)pyridin-2-yl)-1,3a,4,5,10,11a-hexahydro-2H-benzo[b]pyrrolo[2,3-f][1,4]diazocine-2,11(3H)-dione]
1.12e+06 M⁻¹ s⁻¹ | C=CC(=O)N1CC(N2CCN(CCN3C[C@H]4CC(=O)N(c5cc(C(F)(F)F)cc(C)n5)[C@@H]4C(=O)N(C)c4c(F)c(F)cc(Cl)c43)CC2)C1 [Example 20, (3aR,11aS)-5-(2-(4-(1-acryloylazetidin-3-yl)piperazin-1-yl)ethyl)-6-chloro-8,9-difluoro-10-methyl-1-(6-methyl-4-(trifluoromethyl)pyridin-2-yl)-1,3a,4,5,10,11a-hexahydro-2H-benzo[b]pyrrolo[2,3-f][1,4]diazocine-2,11(3H)-dione]
1.05e+06 M⁻¹ s⁻¹ | Cc1cc(C(F)(F)F)cc(N2C(=O)C[C@@H]3CN(CCN4CCOC5(C4)CN(C(=O)/C=C/CN(C)C)C5)c4c(F)cccc4N(C)C(=O)[C@H]32)n1 [Example 27, (3aR,11aS)-5-(2-(2-((E)-4-(dimethylamino)but-2-enoyl)-5-oxa-2,8-diazaspiro[3.5]nonan-8-yl)ethyl)-6-fluoro-10-methyl-1-(6-methyl-4-(trifluoromethyl)pyridin-2-yl)-1,3a,4,5,10,11a-hexahydro-2H-benzo[b]pyrrolo[2,3-f][1,4]diazocine-2,11(3H)-dione Hydrochloride]
350000 M⁻¹ s⁻¹ | C=CC(=O)N1CC(N2CCN(CCN3C[C@H]4CC(=O)N(c5cc(C(F)(F)F)cc(C)n5)[C@@H]4C(=O)N(C)c4cccc(F)c43)C[C@@H]2CF)C1 [Example 28, (3aR,11aS)-5-(2-((R)-4-(1-acryloylazetidin-3-yl)-3-(fluoromethyl)piperazin-1-yl)ethyl)-6-fluoro-10-methyl-1-(6-methyl-4-(trifluoromethyl)pyridin-2-yl)-1,3a,4,5,10,11a-hexahydro-2H-benzo[b]pyrrolo[2,3-f][1,4]diazocine-2,11(3H)-dione]
320000 M⁻¹ s⁻¹ | C=CC(=O)N1CC(N2CCN(CCN3C[C@H]4CC(=O)N(c5cc(C(F)(F)F)cc(C)n5)[C@@H]4C(=O)N(C)c4cccc(F)c43)C[C@H](F)C2)C1 [Example 29, (3aR,11aS)-5-(2-((S)-4-(1-acryloylazetidin-3-yl)-6-fluoro-1,4-diazepan-1-yl)ethyl)-6-fluoro-10-methyl-1-(6-methyl-4-(trifluoromethyl)pyridin-2-yl)-1,3a,4,5,10,11a-hexahydro-2H-benzo[b]pyrrolo[2,3-f][1,4]diazocine-2,11(3H)-dione]
690000 M⁻¹ s⁻¹ | C=CC(=O)N1CC2(CN(CCN3C[C@H]4CC(=O)N(c5cc(C(F)(F)F)cc(C)n5)[C@@H]4C(=O)N(C)c4cccc(F)c43)CCN2)C1 [Example 30, (3aR,11aS)-5-(2-(2-acryloyl-2,5,8-triazaspiro[3.5]nonan-8-yl)ethyl)-6-fluoro-10-methyl-1-(6-methyl-4-(trifluoromethyl)pyridin-2-yl)-1,3a,4,5,10,11a-hexahydro-2H-benzo[b]pyrrolo[2,3-f][1,4]diazocine-2,11(3H)-dione]
1.13e+06 M⁻¹ s⁻¹ | C=CC(=O)N1CC2(CN(CCN3C[C@H]4CC(=O)N(c5cc(C(F)(F)F)cc(C)n5)[C@@H]4C(=O)N(C)c4cccc(F)c43)C[C@@H](C)N2)C1 [Example 31, (3aR,11aS)-5-(2-((R)-2-acryloyl-6-methyl-2,5,8-triazaspiro[3.5]nonan-8-yl)ethyl)-6-fluoro-10-methyl-1-(6-methyl-4-(trifluoromethyl)pyridin-2-yl)-1,3a,4,5,10, 11a-hexahydro-2H-benzo [b]pyrrolo[2,3-f][1,4] diazocine-2,11(3H)-dione]
420000 M⁻¹ s⁻¹ | C=CC(=O)N1CC2(CN(CCN3C[C@H]4CC(=O)N(c5cc(C(F)(F)F)cc(C)n5)[C@@H]4C(=O)N(C)c4cccc(F)c43)C[C@H](C)N2)C1 [Example 32, (3aR,11aS)-5-(2-((S)-2-acryloyl-6-methyl-2,5,8-triazaspiro[3.5]nonan-8-yl)ethyl)-6-fluoro-10-methyl-1-(6-methyl-4-(trifluoromethyl)pyridin-2-yl)-1,3a,4,5,10,11a-hexahydro-2H-benzo[b] pyrrolo[2,3-f][1,4] diazocine-2,11(3H)-dione]
1.23e+06 M⁻¹ s⁻¹ | C=CC(=O)N1CC2(CN(CCN3C[C@H]4CC(=O)N(c5cc(C(F)(F)F)cc(C)n5)[C@@H]4C(=O)N(C)c4cccc(Cl)c43)CCN2)C1 [Example 33, (3aR,11aS)-5-(2-(2-acryloyl-2,5,8-triazaspiro[3.5]nonan-8-yl)ethyl)-6-chloro-10-methyl-1-(6-methyl-4-(trifluoromethyl)pyridin-2-yl)-1,3a,4,5, 10,11a-hexahydro-2H-benzo[b]pyrrolo [2,3-f][1,4]diazocine-2,11(3H)-dione]
870000 M⁻¹ s⁻¹ | C=CC(=O)N1CC2(CN(CCN3C[C@H]4CC(=O)N(c5cc(C(F)(F)F)cc(C)n5)[C@@H]4C(=O)N(C)c4cccc(F)c43)CCN2CC)C1 [Example 35, (3aR,11aS)-5-(2-(2-acryloyl-5-ethyl-2,5,8-triazaspiro[3.5]nonan-8-yl)ethyl)-6-fluoro-10-methyl-1-(6-methyl-4-(trifluoromethyl)pyridin-2-yl)-1,3a,4,5,10,11a-hexahydro-2H-benzo[b]pyrrolo[2,3-f][1,4]diazocine-2,11(3H)-dione]
1.47e+06 M⁻¹ s⁻¹ | C=CC(=O)N1CC2(CN(CCN3C[C@H]4CC(=O)N(c5cc(C(F)(F)F)cc(C)n5)[C@@H]4C(=O)N(C)c4cccc(F)c43)CCN2C(C)=O)C1 [Example 36, (3aR,11aS)-5-(2-(5-acetyl-2-acryloyl-2,5,8-triazaspiro[3.5]nonan-8-yl)ethyl)-6-fluoro-10-methyl-1-(6-methyl-4-(trifluoromethyl)pyridin-2-yl)-1,3a,4,5,10,11a-hexahydro-2H-benzo[b]pyrrolo[2,3-f][1,4]diazocine-2,11(3H)-dione]
1.48e+06 M⁻¹ s⁻¹ | C=CC(=O)N1CC2(C1)N[C@H](C)CN(CCN1C[C@H]3CC(=O)N(c4cc(C(F)(F)F)cc(C)n4)[C@@H]3C(=O)N(C)c3cccc(F)c31)C2C (stereo partly drawn) [Example 37a, (3aR,11aS)-5-(2-((6R,9S/R)-2-acryloyl-6,9-dimethyl-2,5,8-triazaspiro[3.5]nonan-8-yl)ethyl)-6-fluoro-10-methyl-1-(6-methyl-4-(trifluoromethyl)pyridin-2-yl)-1,3a,4,5,10,11a-hexahydro-2H-benzo[b]pyrrolo[2,3-f][1,4]diazocine-2,11(3H)-dione]
